This is an account of results in patent US20080286254A1, “Composition comprising licorice polyphenol” (Kaneka Corporation, priority 2007, published 2008).

The experiment has as its system 3T3-L1 cells. The experiment can be described thus: Lipid decomposition (glycerol secretion) in in vitro obese model of differentiated 3T3-L1 adipocytes. Format: cell-based. The note with it: 24 hr. As to the method: As adipocyte precursor cells, 3T3-L1 cells (Dainippon Sumitomo Pharmaceuticals Co., Ltd.) were used. The 3T3-L1 cells were cultured in passage medium A (10% bovine serum-added DMEM supplemented with penicillin[…]streptomycin) in a 75 cm^2 flask. The 3T3-L1 cells were plated in a 24 well plate at 20000 cells/well. The next day, the medium was changed to passage medium B (10% fetal calf serum-added high glucose DMEM supplemented with penicillin-streptomycin) and, 48 hr later, the medium was changed to differentiation induction medium. The differentiation induction medium contained passage medium B as a base medium, and dexamethasone, isobutylmethylxanthine, insulin and pioglitazone at a final concentration of 0.5 μM, 500 μM, 8 μg/ml and 2 μM, respectively. Further, 48 hr later, the medium was changed to a differentiation promoting medium. The differentiation promoting medium contained passage medium B as a base medium, and insulin and pioglitazone at a final concentration of 8 μg/ml and 2 μM, respectively. 48 hr later, the medium was changed to passage medium B. Thereafter, the medium was changed to passage medium B every other day. 7 to 10 days later, differentiation of 3T3-L1 cells into mature adipocyte cells were confirmed with a phase contrast microscope, and the cells were subjected to the following test.
After removing passage medium B by an aspirator, the cells were washed with KRB-HEPES (128 mM NaCl, 10 mM NaH2PO4, 4.7 mM KCl, 1.25 mM CaCl2, 1.25 mM MgCl2, 50 mM HEPES, pH 7.4). The licorice hydrophobic extract (50 mg/ml) of Example 1 and α-lipoic acid (100 mM) as an antioxidant ingredient were each dissolved in DMSO. […] The glycerol concentration was measured using Glycerol Reagent A manufactured by Zen-Bio, and the glycerol amount per protein concentration of the cell was calculated and compared. […]
After removing passage medium B, the cells were washed with KRB-HEPES. […] The glycerol concentration was measured using Glycerol Reagent A manufactured by Zen-Bio, and the glycerol amount per protein concentration of the cell was calculated and compared. […]

In turn, `O=c1c(-c2ccc(O)cc2)coc2cc(O)cc(O)c12` [genistein] came in with a glycerol secretion amount (Table 2 (Example 10), genistein 10 μM) of 111.1 ± 6.3 μM/mg protein.
In turn, `O=C(O)CCCCC1CCSS1` (stereo not drawn) [α-lipoic acid] had a glycerol secretion amount (Table 1 (Example 9), α-lipoic acid 30 μM) of 89.6 ± 4.8 μM/mg protein.
Regarding `C[N+](C)(C)CC(O)CC(=O)[O-]` (stereo not drawn) [carnitine], the glycerol secretion amount (Table 3 (Example 11), carnitine 80 μM) is listed as 43.5 ± 1.9 μM/mg protein.
